Earlier results on 1 compound are cited in patent US20060057183A1, “Indwelling stent” (priority 2003, published 2006).

The series concerns human vascular cells. As to conditions: Mohacsi et al., J Heart Lung Transplant 1997.

On to `C=CC[C@@H]1/C=C(\C)C[C@H](C)C[C@H](OC)[C@H]2O[C@@](O)(C(=O)C(=O)N3CCCC[C@H]3C(=O)O[C@H](/C(C)=C/[C@@H]3CC[C@@H](O)[C@H](OC)C3)[C@H](C)[C@@H](O)CC1=O)[C@H](C)C[C@@H]2OC` [tacrolimus (FK506), Tacrolimus], for which the “antiproliferative effects on human vascular cells” value is recorded as “antiproliferative effects”.
